Test results from patent US11453703B2, “Heterotandem bicyclic peptide complexes” (BicycleTX Limited, priority 2018, dated 2022).

What was measured:
human EphA2 protein = human EphA2 protein (Homo sapiens, UniProt P29317); experiment: EphA2 Biacore (SPR) binding assay; settings: biotinylated human EphA2, 25° C.
Experimental: Biacore experiments were performed to determine ka (M^−1s^−1), kd (s^−1), KD (nM) values of heterotandem peptides binding to human EphA2 protein.
EphA2 were biotinylated with EZ-Link™ Sulfo-NHS-LC-Biotin for 1 hour in 4 mM sodium acetate, 100 mM NaCl, pH 5.4 with a 3× molar excess of biotin over protein. The degree of labelling was determined using a Fluorescence Biotin Quantification Kit (Thermo) after dialysis of the reaction mixture into PBS. For analysis of peptide binding, a Biacore T200 instrument was used with a XanTec CMD500D chip. Streptavidin was immobilized on the chip using standard amine-coupling chemistry at 25° C. with HBS-N (10 mM HEPES, 0.15 M NaCl, pH 7.4) as the running buffer. Briefly, the carboxymethyl dextran surface was activated with a 7 min injection of a 1:1 ratio of 0.4 M 1-ethyl-3-(3-dimethylaminopropyl) carbodiimide hydrochloride (EDC)/0.1 M N-hydroxy succinimide (NHS) at a flow rate of 10 it/min. For capture of streptavidin, the protein was diluted to 0.2 mg/ml in 10 mM sodium acetate (pH 4.5) and captured by injecting 120 μl onto the activated chip surface. Residual activated groups were blocked with a 7 min injection of 1 M ethanolamine (pH 8.5):HBS-N (1:1). Buffer was changed to PBS/0.05% Tween 20 and biotinylated EphA2 was captured to a level of 500-1500 RU using a dilution of protein to 0.2 μM in buffer. A dilution series of the peptides was prepared in this buffer with a final DMSO concentration of 0.5% with a top peptide concentration was 50 or 100 nM and 6 further 2-fold dilutions. The SPR analysis was run at 25° C. at a flow rate of 90 μl/min with 60 seconds association and 900-1200 seconds dissociation. Data were corrected for DMSO excluded volume effects. All data were double-referenced for blank injections and reference surface using standard processing procedures and data processing and kinetic fitting were performed using Scrubber software, version 2.0c (BioLogic Software). Data were fitted using simple 1:1 binding model allowing for mass transport effects where appropriate.

CD137 [1] = molecular target: T1, CD137 (Homo sapiens, UniProt Q07011); experiment: CD137 reporter assay, co-culture with EphA2 tumour cells; type: cell-based; design: host or cells: Jurkat reporter cells; settings: tumour target EphA2, co-culture with SC-OV-3, 6 h
Summary of the method: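 Jurkat CD137 reporter cells co-cultured with tumour cells and serially diluted test articles in RPMI-1640 + 1% FBS, 6 h at 37 °C, 5% CO2. Luminescence read after Bio-Glo; fold change over cells-only background fitted log(agonist) vs response for EC50 (nM) and maximal fold induction.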

CD137 [2] = molecular target: T1, CD137; experiment: CD137 Biacore (SPR) binding assay; design: purchased R&D systems; settings: biotinylated human CD137, 25° C.
Summary of the method: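 Biotinylated human CD137 captured (270-1500 RU) on streptavidin-coupled dextran chip; peptides up to 500 nM in PBS/0.05% Tween 20, 0.5% DMSO, at 25°C, 60 s association, 900 s dissociation. Double-referenced data fitted to 1:1 binding model, with mass transport where appropriate.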

T1 sequence (Q07011 24-255): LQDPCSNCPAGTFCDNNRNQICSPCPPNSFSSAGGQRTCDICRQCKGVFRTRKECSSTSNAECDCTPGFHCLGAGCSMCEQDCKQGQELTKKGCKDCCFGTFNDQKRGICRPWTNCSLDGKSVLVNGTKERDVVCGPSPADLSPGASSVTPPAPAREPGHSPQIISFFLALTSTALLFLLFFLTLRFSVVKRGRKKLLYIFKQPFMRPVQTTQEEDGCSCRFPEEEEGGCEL
human EphA2 protein, sequence (P29317 24-976): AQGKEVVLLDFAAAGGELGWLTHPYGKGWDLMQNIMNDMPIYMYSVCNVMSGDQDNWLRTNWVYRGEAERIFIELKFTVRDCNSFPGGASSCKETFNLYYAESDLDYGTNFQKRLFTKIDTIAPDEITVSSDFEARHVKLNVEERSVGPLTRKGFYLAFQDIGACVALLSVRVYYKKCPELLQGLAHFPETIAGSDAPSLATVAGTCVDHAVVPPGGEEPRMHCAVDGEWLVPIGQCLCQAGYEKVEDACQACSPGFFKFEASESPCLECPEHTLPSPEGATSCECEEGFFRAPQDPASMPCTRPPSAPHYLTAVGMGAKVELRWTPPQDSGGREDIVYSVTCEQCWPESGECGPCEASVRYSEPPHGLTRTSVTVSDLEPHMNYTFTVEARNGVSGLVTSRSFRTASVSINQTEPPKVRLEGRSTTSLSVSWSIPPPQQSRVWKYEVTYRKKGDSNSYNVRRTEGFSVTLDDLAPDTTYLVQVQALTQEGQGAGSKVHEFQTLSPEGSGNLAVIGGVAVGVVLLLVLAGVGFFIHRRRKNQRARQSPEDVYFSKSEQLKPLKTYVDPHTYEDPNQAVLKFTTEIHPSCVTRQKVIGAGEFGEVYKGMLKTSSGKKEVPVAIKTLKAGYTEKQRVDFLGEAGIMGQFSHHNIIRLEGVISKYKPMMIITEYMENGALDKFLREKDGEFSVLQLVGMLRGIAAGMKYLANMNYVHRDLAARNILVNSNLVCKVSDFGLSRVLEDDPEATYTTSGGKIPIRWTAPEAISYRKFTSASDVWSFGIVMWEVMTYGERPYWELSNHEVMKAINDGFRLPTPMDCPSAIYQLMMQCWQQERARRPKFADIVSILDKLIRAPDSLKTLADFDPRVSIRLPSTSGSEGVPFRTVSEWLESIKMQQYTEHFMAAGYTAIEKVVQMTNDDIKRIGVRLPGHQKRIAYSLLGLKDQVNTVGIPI

CCCC[C@@H]1NC(=O)[C@H](Cc2ccc(O)cc2)NC(=O)[C@@H]2CCCN2C(=O)[C@H](CC(=O)O)NC(=O)[C@H](C)NC(=O)[C@H](Cc2ccccc2)NC(=O)[C@@H]2CSCCC(=O)N3CN(CN(C3)C(=O)CCSC[C@@H](C(=O)N[C@@H](CNC(=O)CCc3cn(CCOCCOCCOCCOCCOCCNC(=O)NCCC(=O)N(C)CC(=O)N(C)CC(=O)N(C)CC(=O)N(C)CC(=O)N(C)CC(=O)N(C)CC(=O)N(C)CC(=O)N(C)CC(=O)N(C)CC(=O)N(C)CC(=O)N[C@@H](C)C(=O)N[C@@H](CCCCNC(=N)N)C(=O)N[C@@H](CC(=O)O)C(=O)N[C@H]4CSCCC(=O)N5CN6CN(C5)C(=O)CCSC[C@H](NC(=O)[C@H](CC(C)C)NC(=O)[C@@H]5CCCN5C(=O)[C@H](CC(N)=O)NC(=O)[C@H](C(C)C)NC(=O)[C@H](CC(C)C)NC(=O)[C@@H]5C[C@@H](O)CN5C4=O)C(=O)N[C@@H](CC(C)C)C(=O)N[C@@H](Cc4c[nH]cn4)C(=O)N4CCC[C@H]4C(=O)N[C@H](CC(=O)O)C(=O)N[C@@H](Cc4c[nH]c5ccccc45)C(=O)N[C@@H](CCCCNC(=N)N)C(=O)N[C@H](C(N)=O)CSCCC6=O)nn3)C(N)=O)NC1=O)C(=O)CCSC[C@H](NC(=O)[C@H](C)NC(C)=O)C(=O)N[C@@H]([C@@H](C)CC)C(=O)N[C@@H](CCC(=O)O)C(=O)N[C@@H](CCC(=O)O)C(=O)NCC(=O)N[C@@H](CCC(N)=O)C(=O)N[C@@H](Cc1ccc(O)cc1)C(=O)N2 [BCY9659]
Kd (human EphA2 protein): 1.03 nM
EC50 (CD137 [1]): 9.9 nM
Fold Induction over Background (CD137 [1]): 7 fold
Kd (CD137 [2]): 88.1 nM
